# Test results: the supplement of paper PMC4862054
# Test system: BT-474
# Assay: normalised response (% of control), CellTiter-Glo; higher = more viable cells (100 = DMSO, 0 = benzethonium chloride kill control)
# Settings: incubation time: 72 h
# Method: (§1)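 DSRT, 72 h incubation, CellTox Green / CellTiter-Glo readout. Signal is normalised to DMSO and benzethonium chloride controls. Value is the normalised response at the highest dose.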
row,Structure (SMILES),normalised response [%]
1,O=C(NC[C@H](O)CO)c1ccncc1Nc1ccc(I)cc1F [Pimasertib] (10000 nM),53
2,c1cc(CN2CCCNCCNCCCNCC2)ccc1CN1CCCNCCNCCCNCC1 [Plerixafor] (10000 nM),90.9
3,Cn1cc(CNCC2CCN(c3ncc(C(=O)NO)cn3)CC2)c2ccccc21 [Quisinostat] (1000 nM),6.87
4,CC[C@@]1(O)C(=O)OCc2c1cc1n(c2=O)Cc2cc3c(CN(C)C)c(O)ccc3nc2-1 [Topotecan] (10000 nM),47.8

# Test system: BT-549
# Assay: as above
# Settings: incubation time: 72 h
# Method: as §1
row,Structure (SMILES),normalised response [%]
1,Cc1c(Cn2c(C)nc3c(C(=O)O)cc(N4CCOCC4)cc32)cccc1C(F)(F)F (10000 nM),85.4
2,CCCCC/C=C/C=C1/C(=O)C=C[C@@H]1C/C=C\CCCC(=O)O [15D-PGJ2] (800 nM),96.5
3,CC(=O)OC[C@H]1O[C@@H]([S-])[C@H](OC(C)=O)[C@@H](OC(C)=O)[C@@H]1OC(C)=O.CCP(CC)CC.[Au+] [Auranofin] (2500 nM),0.2
4,CS(=O)(=O)N1CCN(Cc2cc3nc(-c4cccc5[nH]ncc45)nc(N4CCOCC4)c3s2)CC1 [Pictilisib] (10000 nM),25.6
5,O=C(NC[C@H](O)CO)c1ccncc1Nc1ccc(I)cc1F [Pimasertib] (10000 nM),84.2
6,c1cc(CN2CCCNCCNCCCNCC2)ccc1CN1CCCNCCNCCCNCC1 [Plerixafor] (10000 nM),107
7,Cn1cc(CNCC2CCN(c3ncc(C(=O)NO)cn3)CC2)c2ccccc21 [Quisinostat] (1000 nM),10.2
8,CC[C@@]1(O)C(=O)OCc2c1cc1n(c2=O)Cc2cc3c(CN(C)C)c(O)ccc3nc2-1 [Topotecan] (10000 nM),22.1

# Test system: CAL-120
# Assay: as above
# Settings: incubation time: 72 h
# Method: as §1
row,Structure (SMILES),normalised response [%]
1,Cc1c(Cn2c(C)nc3c(C(=O)O)cc(N4CCOCC4)cc32)cccc1C(F)(F)F (10000 nM),100
2,CCCCC/C=C/C=C1/C(=O)C=C[C@@H]1C/C=C\CCCC(=O)O [15D-PGJ2] (800 nM),101
3,CC(=O)OC[C@H]1O[C@@H]([S-])[C@H](OC(C)=O)[C@@H](OC(C)=O)[C@@H]1OC(C)=O.CCP(CC)CC.[Au+] [Auranofin] (2500 nM),49.8
4,CS(=O)(=O)N1CCN(Cc2cc3nc(-c4cccc5[nH]ncc45)nc(N4CCOCC4)c3s2)CC1 [Pictilisib] (10000 nM),34.3
5,O=C(NC[C@H](O)CO)c1ccncc1Nc1ccc(I)cc1F [Pimasertib] (10000 nM),65.4
6,c1cc(CN2CCCNCCNCCCNCC2)ccc1CN1CCCNCCNCCCNCC1 [Plerixafor] (10000 nM),108
7,Cn1cc(CNCC2CCN(c3ncc(C(=O)NO)cn3)CC2)c2ccccc21 [Quisinostat] (1000 nM),10.8
8,CC[C@@]1(O)C(=O)OCc2c1cc1n(c2=O)Cc2cc3c(CN(C)C)c(O)ccc3nc2-1 [Topotecan] (10000 nM),37

# Test system: CAL-148
# Assay: as above
# Settings: incubation time: 72 h
# Method: as §1
row,Structure (SMILES),normalised response [%]
1,Cc1c(Cn2c(C)nc3c(C(=O)O)cc(N4CCOCC4)cc32)cccc1C(F)(F)F (10000 nM),114
2,CCCCC/C=C/C=C1/C(=O)C=C[C@@H]1C/C=C\CCCC(=O)O [15D-PGJ2] (800 nM),108
3,CC(=O)OC[C@H]1O[C@@H]([S-])[C@H](OC(C)=O)[C@@H](OC(C)=O)[C@@H]1OC(C)=O.CCP(CC)CC.[Au+] [Auranofin] (2500 nM),41.8
4,CS(=O)(=O)N1CCN(Cc2cc3nc(-c4cccc5[nH]ncc45)nc(N4CCOCC4)c3s2)CC1 [Pictilisib] (10000 nM),15.6
5,O=C(NC[C@H](O)CO)c1ccncc1Nc1ccc(I)cc1F [Pimasertib] (10000 nM),71.6
6,c1cc(CN2CCCNCCNCCCNCC2)ccc1CN1CCCNCCNCCCNCC1 [Plerixafor] (10000 nM),91.8
7,Cn1cc(CNCC2CCN(c3ncc(C(=O)NO)cn3)CC2)c2ccccc21 [Quisinostat] (1000 nM),0.34
8,CC[C@@]1(O)C(=O)OCc2c1cc1n(c2=O)Cc2cc3c(CN(C)C)c(O)ccc3nc2-1 [Topotecan] (10000 nM),0.39

# Test system: CAL-51
# Assay: as above
# Settings: incubation time: 72 h
# Method: as §1
row,Structure (SMILES),normalised response [%]
1,Cc1c(Cn2c(C)nc3c(C(=O)O)cc(N4CCOCC4)cc32)cccc1C(F)(F)F (10000 nM),64.9
2,CCCCC/C=C/C=C1/C(=O)C=C[C@@H]1C/C=C\CCCC(=O)O [15D-PGJ2] (800 nM),71.8
3,CC(=O)OC[C@H]1O[C@@H]([S-])[C@H](OC(C)=O)[C@@H](OC(C)=O)[C@@H]1OC(C)=O.CCP(CC)CC.[Au+] [Auranofin] (2500 nM),9.42
4,CS(=O)(=O)N1CCN(Cc2cc3nc(-c4cccc5[nH]ncc45)nc(N4CCOCC4)c3s2)CC1 [Pictilisib] (10000 nM),8.84
5,O=C(NC[C@H](O)CO)c1ccncc1Nc1ccc(I)cc1F [Pimasertib] (10000 nM),90.2
6,c1cc(CN2CCCNCCNCCCNCC2)ccc1CN1CCCNCCNCCCNCC1 [Plerixafor] (10000 nM),124
7,Cn1cc(CNCC2CCN(c3ncc(C(=O)NO)cn3)CC2)c2ccccc21 [Quisinostat] (1000 nM),7.13
8,CC[C@@]1(O)C(=O)OCc2c1cc1n(c2=O)Cc2cc3c(CN(C)C)c(O)ccc3nc2-1 [Topotecan] (10000 nM),15.2

# Test system: CAL-85-1
# Assay: as above
# Settings: incubation time: 72 h
# Method: as §1
row,Structure (SMILES),normalised response [%]
1,Cc1c(Cn2c(C)nc3c(C(=O)O)cc(N4CCOCC4)cc32)cccc1C(F)(F)F (10000 nM),97.3
2,CCCCC/C=C/C=C1/C(=O)C=C[C@@H]1C/C=C\CCCC(=O)O [15D-PGJ2] (800 nM),101
3,CC(=O)OC[C@H]1O[C@@H]([S-])[C@H](OC(C)=O)[C@@H](OC(C)=O)[C@@H]1OC(C)=O.CCP(CC)CC.[Au+] [Auranofin] (2500 nM),4.51
4,CS(=O)(=O)N1CCN(Cc2cc3nc(-c4cccc5[nH]ncc45)nc(N4CCOCC4)c3s2)CC1 [Pictilisib] (10000 nM),27.8
5,O=C(NC[C@H](O)CO)c1ccncc1Nc1ccc(I)cc1F [Pimasertib] (10000 nM),40.8
6,c1cc(CN2CCCNCCNCCCNCC2)ccc1CN1CCCNCCNCCCNCC1 [Plerixafor] (10000 nM),96
7,Cn1cc(CNCC2CCN(c3ncc(C(=O)NO)cn3)CC2)c2ccccc21 [Quisinostat] (1000 nM),4.67
8,CC[C@@]1(O)C(=O)OCc2c1cc1n(c2=O)Cc2cc3c(CN(C)C)c(O)ccc3nc2-1 [Topotecan] (10000 nM),21.6

# Test system: DU-4475
# Assay: as above
# Settings: incubation time: 72 h
# Method: as §1
row,Structure (SMILES),normalised response [%]
1,Cc1c(Cn2c(C)nc3c(C(=O)O)cc(N4CCOCC4)cc32)cccc1C(F)(F)F (10000 nM),97
2,CCCCC/C=C/C=C1/C(=O)C=C[C@@H]1C/C=C\CCCC(=O)O [15D-PGJ2] (800 nM),100
3,CC(=O)OC[C@H]1O[C@@H]([S-])[C@H](OC(C)=O)[C@@H](OC(C)=O)[C@@H]1OC(C)=O.CCP(CC)CC.[Au+] [Auranofin] (2500 nM),32.6
4,CS(=O)(=O)N1CCN(Cc2cc3nc(-c4cccc5[nH]ncc45)nc(N4CCOCC4)c3s2)CC1 [Pictilisib] (10000 nM),81.4
5,O=C(NC[C@H](O)CO)c1ccncc1Nc1ccc(I)cc1F [Pimasertib] (10000 nM),0.07
6,c1cc(CN2CCCNCCNCCCNCC2)ccc1CN1CCCNCCNCCCNCC1 [Plerixafor] (10000 nM),88.6
7,Cn1cc(CNCC2CCN(c3ncc(C(=O)NO)cn3)CC2)c2ccccc21 [Quisinostat] (1000 nM),15.9
8,CC[C@@]1(O)C(=O)OCc2c1cc1n(c2=O)Cc2cc3c(CN(C)C)c(O)ccc3nc2-1 [Topotecan] (10000 nM),0.66

# Test system: HCC1143
# Assay: as above
# Settings: incubation time: 72 h
# Method: as §1
row,Structure (SMILES),normalised response [%]
1,Cc1c(Cn2c(C)nc3c(C(=O)O)cc(N4CCOCC4)cc32)cccc1C(F)(F)F (10000 nM),106
2,CCCCC/C=C/C=C1/C(=O)C=C[C@@H]1C/C=C\CCCC(=O)O [15D-PGJ2] (800 nM),107
3,CC(=O)OC[C@H]1O[C@@H]([S-])[C@H](OC(C)=O)[C@@H](OC(C)=O)[C@@H]1OC(C)=O.CCP(CC)CC.[Au+] [Auranofin] (2500 nM),31.8
4,CS(=O)(=O)N1CCN(Cc2cc3nc(-c4cccc5[nH]ncc45)nc(N4CCOCC4)c3s2)CC1 [Pictilisib] (10000 nM),26
5,O=C(NC[C@H](O)CO)c1ccncc1Nc1ccc(I)cc1F [Pimasertib] (10000 nM),79.1
6,c1cc(CN2CCCNCCNCCCNCC2)ccc1CN1CCCNCCNCCCNCC1 [Plerixafor] (10000 nM),102
7,Cn1cc(CNCC2CCN(c3ncc(C(=O)NO)cn3)CC2)c2ccccc21 [Quisinostat] (1000 nM),13.9
8,CC[C@@]1(O)C(=O)OCc2c1cc1n(c2=O)Cc2cc3c(CN(C)C)c(O)ccc3nc2-1 [Topotecan] (10000 nM),26.9

# Test system: HCC1599
# Assay: as above
# Settings: incubation time: 72 h
# Method: as §1
row,Structure (SMILES),normalised response [%]
1,Cc1c(Cn2c(C)nc3c(C(=O)O)cc(N4CCOCC4)cc32)cccc1C(F)(F)F (10000 nM),97.5
2,CCCCC/C=C/C=C1/C(=O)C=C[C@@H]1C/C=C\CCCC(=O)O [15D-PGJ2] (800 nM),97
3,CC(=O)OC[C@H]1O[C@@H]([S-])[C@H](OC(C)=O)[C@@H](OC(C)=O)[C@@H]1OC(C)=O.CCP(CC)CC.[Au+] [Auranofin] (2500 nM),39.1
4,CS(=O)(=O)N1CCN(Cc2cc3nc(-c4cccc5[nH]ncc45)nc(N4CCOCC4)c3s2)CC1 [Pictilisib] (10000 nM),64.9
5,O=C(NC[C@H](O)CO)c1ccncc1Nc1ccc(I)cc1F [Pimasertib] (10000 nM),89.8
6,c1cc(CN2CCCNCCNCCCNCC2)ccc1CN1CCCNCCNCCCNCC1 [Plerixafor] (10000 nM),99.8
7,Cn1cc(CNCC2CCN(c3ncc(C(=O)NO)cn3)CC2)c2ccccc21 [Quisinostat] (1000 nM),6.82
8,CC[C@@]1(O)C(=O)OCc2c1cc1n(c2=O)Cc2cc3c(CN(C)C)c(O)ccc3nc2-1 [Topotecan] (10000 nM),9.36

# Test system: HCC1937
# Assay: as above
# Settings: incubation time: 72 h
# Method: as §1
row,Structure (SMILES),normalised response [%]
1,Cc1c(Cn2c(C)nc3c(C(=O)O)cc(N4CCOCC4)cc32)cccc1C(F)(F)F (10000 nM),92.1
2,CCCCC/C=C/C=C1/C(=O)C=C[C@@H]1C/C=C\CCCC(=O)O [15D-PGJ2] (800 nM),102
3,CC(=O)OC[C@H]1O[C@@H]([S-])[C@H](OC(C)=O)[C@@H](OC(C)=O)[C@@H]1OC(C)=O.CCP(CC)CC.[Au+] [Auranofin] (2500 nM),1.72
4,CS(=O)(=O)N1CCN(Cc2cc3nc(-c4cccc5[nH]ncc45)nc(N4CCOCC4)c3s2)CC1 [Pictilisib] (10000 nM),32.3
5,O=C(NC[C@H](O)CO)c1ccncc1Nc1ccc(I)cc1F [Pimasertib] (10000 nM),68.1
6,c1cc(CN2CCCNCCNCCCNCC2)ccc1CN1CCCNCCNCCCNCC1 [Plerixafor] (10000 nM),97.3
